Where a chain is given by its changes, count along the chain named. Values joined by “and” are separate entries in the source; they are usually repeats but may differ in a detail not shown here. Equal values may be shown once.
Assays:
PfCRT variant W280A = experiment: CQ uptake assay, oocytes expressing W280A; type: cell-based, Plasmodium falciparum
Experimental: (§1) Site-directed mutagenesis of PfCRT^Dd2 was performed as described using the megaprimer method with overlap extension[21],[54]. The primer pairs used are listed in Supplementary Table 6. Please note that a codon-optimized and oocyte-adapted version of PfCRT^Dd2 was used[22] (Supplementary Fig. 16). The resulting DNA fragment was cloned into the SP64T expression vector and verified by sequencing.
(§2) Oocytes were obtained as described previously. Briefly, adult (>2 years old) female X. laevis frogs (NASCO) were anesthetized in a cooled solution of ethyl 3-amino benzoate methanesulfonate (0.1%, w/v), followed by a surgical removal of parts of the ovary. The ovary lobes were carefully dissected and small pieces of oocytes were incubated in Ca^2+-free ND96 buffer (96 mM NaCl, 2 mM KCl, 1 mM MgCl2 buffered with 5 mM HEPES/NaOH, pH 7.5) supplemented with collagenase D (0.1%, w/v; Roche), BSA (0.5%, w/v), and 9 mm Na2HPO4 at 18 °C for 14-16 h while gentle shaking. After incubation, the oocytes were carefully washed several times with ND96 buffer (96 mM NaCl, 2 mM KCl, 1.8 mM CaCl2, 1 mM MgCl2 buffered with 5 mM HEPES/NaOH, pH 7.5) supplemented with 100 mg l^−1 gentamycin). Defolliculated and healthy-looking stage V-VI oocytes were manually selected for RNA microinjection. The RNA was generated as following: The codon-optimized sequences of PfCRT variants were cloned into the pSP64T expression vector. After vector linearization using the restriction endonucleases BamHI or SalI (New England Biolabs), transcription was performed using the in vitro SP6 mMessage mMachine Kit (Ambion)[34]. The obtained RNA was kept at −80 °C and diluted with nuclease-free water to a concentration of 0.6 μg μl^−1. Precision-bore glass capillary tubes (3.5-inch glass capillaries; Drummond Scientific Co.) were pulled on a vertical puller (P-87 Flaming/Brown micropipette puller, Sutter Instrument Co.), graduated, and placed on a microinjector (Nanoject II Auto-Nanoliter Injector, Drummond Scientific Co.). 50 nl of nuclease-free water alone (control oocytes) or 50 nl of 0.6 μg μl^−1 RNA were injected under stereomicroscopic control. Injected oocytes were incubated for 46–72 h at 18 °C with twice-daily buffer changes before usage in experiments.
Drug uptake assays were performed as described previously[21],[22],[24],[34]. […] The direction of radio-labeled drug transport is here from the mostly acidic extracellular solution (pH 4.5 or 6.0, as indicated) into the oocyte cytosol (pH ∼ 7.2), which corresponds to the efflux of drug from the acidic digestive vacuole (pH 5.2) into the parasite cytoplasm (pH 7.2). The topology of PfCRT in the oolemma is such that both the N- and C-terminus face the extracellular milieu[3],[22]. In the parasite, the N- and C-terminus face the lumen of the digestive vacuole. CQ uptake kinetics were performed by incubating oocytes in ND96 buffer adjusted to a pH of 4.5, 5.0, 5.5, or 6.0 and supplemented with 50 nM [^3H]CQ and one of 7 different CQ concentrations (10 µM, 50 µM, 100 µM, 200 µM, 300 µM, 400 µM, 500 µM CQ). The reaction was stopped at the 60 min time point, which is in the linear uptake range[22],[34] (Supplementary Fig. 17). For determination of the amount of drug uptake for each oocyte, the reaction medium was removed and the oocytes were washed three times with 2 ml of ice-cold ND96 buffer. Each oocyte was individually transferred to a scintillation vial containing 5% sodium dodecyl sulfate (200 μl) for lysis. The radioactivity of each sample was measured using a liquid scintillation analyzer Tri-Carb 4910 TR (PerkinElmer). Oocytes that were injected with water instead of RNA were analyzed in parallel, representing the uptake of a drug by diffusion and/or endogenous permeation pathways. The resulting value represents the “background“ level of drug accumulation in oocytes (in-depth discussion in[22]). […]

PfCRT variant E299A = biological target: T1, PfCRT variant E299A (Plasmodium falciparum, UniProt Q9N623, A220S/E299A/I356T/K76T/M74I/N326S/N75E/Q271E/R371I); experiment: CQ uptake assay, oocytes expressing E299A; type: cell-based
T1 sequence (Q9N623 1-424 M74I/N75E/K76T/A220S/Q271E/E299A/N326S/I356T/R371I): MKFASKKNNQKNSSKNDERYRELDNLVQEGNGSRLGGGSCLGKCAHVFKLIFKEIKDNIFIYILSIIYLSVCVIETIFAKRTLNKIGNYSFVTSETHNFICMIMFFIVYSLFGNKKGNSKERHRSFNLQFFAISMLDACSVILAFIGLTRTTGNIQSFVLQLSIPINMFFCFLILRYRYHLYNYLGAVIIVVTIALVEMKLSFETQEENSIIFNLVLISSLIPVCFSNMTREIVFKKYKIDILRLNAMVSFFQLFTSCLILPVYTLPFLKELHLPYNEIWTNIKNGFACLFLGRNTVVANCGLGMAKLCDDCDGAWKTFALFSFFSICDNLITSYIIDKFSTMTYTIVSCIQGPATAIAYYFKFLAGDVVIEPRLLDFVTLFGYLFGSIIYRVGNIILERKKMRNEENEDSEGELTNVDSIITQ
Experimental: as §1, §2
(§3) Drug uptake assays were performed as described previously[21],[22],[24],[34]. […] The direction of radio-labeled drug transport is here from the mostly acidic extracellular solution (pH 4.5 or 6.0, as indicated) into the oocyte cytosol (pH ∼ 7.2), which corresponds to the efflux of drug from the acidic digestive vacuole (pH 5.2) into the parasite cytoplasm (pH 7.2). The topology of PfCRT in the oolemma is such that both the N- and C-terminus face the extracellular milieu[3],[22]. In the parasite, the N- and C-terminus face the lumen of the digestive vacuole. CQ uptake kinetics were performed by incubating oocytes in ND96 buffer adjusted to a pH of 4.5, 5.0, 5.5, or 6.0 and supplemented with 50 nM [^3H]CQ and one of 7 different CQ concentrations (10 µM, 50 µM, 100 µM, 200 µM, 300 µM, 400 µM, 500 µM CQ). The reaction was stopped at the 60 min time point, which is in the linear uptake range[22],[34] (Supplementary Fig. 17). […] The radioactivity of each sample was measured using a liquid scintillation analyzer Tri-Carb 4910 TR (PerkinElmer). Oocytes that were injected with water instead of RNA were analyzed in parallel, representing the uptake of a drug by diffusion and/or endogenous permeation pathways. […]

PfCRT variant F268A = biological target: T2, PfCRT variant F268A (Plasmodium falciparum, UniProt Q9N623, A220S/F268A/I356T/K76T/M74I/N326S/N75E/Q271E/R371I); experiment: CQ uptake assay, oocytes expressing F268A; type: cell-based
T2 sequence (Q9N623 1-424 M74I/N75E/K76T/A220S/F268A/Q271E/N326S/I356T/R371I): T1 sequence (Q9N623 1-424 M74I/N75E/K76T/A220S/Q271E/E299A/N326S/I356T/R371I) with F268A, A299E
Experimental: as §1, §2, §3

[1] = W280A, 50 µM CQ, 1 h, mean ± SEM
[2] = pH 4.5, single replicates, Fig 1d left
[3] = pH 6.0, single replicates, Fig 1d left
[4] = E299A, 50 µM CQ, 1 h, mean ± SEM
[5] = F268A, 50 µM CQ, 1 h, mean ± SEM

Q: How did the “Activity at pH 4.5” value (PfCRT variant W280A; [1]) turn out when `CCN(CC)CCCC(C)Nc1ccnc2cc(Cl)ccc12` (stereo not shown) [CQ, chloroquine] was run?
A: The value was 0.92 ± 0.11 pmol h-1 oocyte-1.

Q: And the “Activity at pH 6.0” value (PfCRT variant W280A; [1])?
A: Its value is 2.64 ± 0.28 pmol h-1 oocyte-1.

Q: And the R-value (PfCRT variant W280A; W280A, CQ transport at pH 4.5 / pH 6.0)?
A: The R-value was 0.35 ± 0.03.

Q: And the “W280A transport activity pH 4.5” value (PfCRT variant W280A; [2])?
A: Its value is 0.97 pmol oocyte-1 h-1 and 0.58 pmol oocyte-1 h-1 and 1.22 pmol oocyte-1 h-1 and 0.92 pmol oocyte-1 h-1.

Q: And the “W280A R-value” (PfCRT variant W280A; pH 4.5 vs pH 6.0, Fig 1d left)?
A: The value was 0.31 and 0.28 and 0.38 and 0.44.

Q: What about the “W280A transport activity pH 6.0” value (PfCRT variant W280A; [3]) of the same molecule?
A: The value was 3.17 pmol oocyte-1 h-1 and 2.06 pmol oocyte-1 h-1 and 3.24 pmol oocyte-1 h-1 and 2.09 pmol oocyte-1 h-1.

Q: And the “Activity at pH 4.5” value (PfCRT variant E299A; [4])?
A: The value was 1.87 ± 0.19 pmol h-1 oocyte-1.

Q: And the “Activity at pH 6.0” value (PfCRT variant E299A; [4])?
A: The value was 3.32 ± 0.54 pmol h-1 oocyte-1.

Q: What about the R-value (PfCRT variant E299A; E299A, CQ transport at pH 4.5 / pH 6.0) of the same molecule?
A: Its R-value is 0.60 ± 0.12.

Q: What about the “E299A transport activity pH 4.5” value (PfCRT variant E299A; [2]) of the same molecule?
A: The value was 2.28 pmol oocyte-1 h-1 and 1.48 pmol oocyte-1 h-1 and 1.84 pmol oocyte-1 h-1.

Q: What about the “E299A transport activity pH 6.0” value (PfCRT variant E299A; [3]) of the same molecule?
A: Its value is 2.59 pmol oocyte-1 h-1 and 2.74 pmol oocyte-1 h-1 and 4.64 pmol oocyte-1 h-1.

Q: And the “Activity at pH 4.5” value (PfCRT variant F268A; [5])?
A: The value was 1.06 ± 0.19 pmol h-1 oocyte-1.

Q: What about the “Activity at pH 6.0” value (PfCRT variant F268A; [5]) of the same molecule?
A: Its value is 2.93 ± 0.28 pmol h-1 oocyte-1.

Q: And the R-value (PfCRT variant F268A; F268A, CQ transport at pH 4.5 / pH 6.0)?
A: Its R-value is 0.40 ± 0.10.

Q: What about the “F268A transport activity pH 4.5” value (PfCRT variant F268A; [2]) of the same molecule?
A: Its value is 0.75 pmol oocyte-1 h-1 and 1.37 pmol oocyte-1 h-1 and 0.63 pmol oocyte-1 h-1 and 1.50 pmol oocyte-1 h-1.

Q: What about the “F268A transport activity pH 6.0” value (PfCRT variant F268A; [3]) of the same molecule?
A: Its value is 3.49 pmol oocyte-1 h-1 and 2.31 pmol oocyte-1 h-1 and 3.48 pmol oocyte-1 h-1 and 2.45 pmol oocyte-1 h-1.
